This is an account of results in US10344060B2 (priority 2013, dated 2019).

Each structure is given as a SMILES string. Read-outs that look alike come from different tables or passages of the source.

The target in the assay is hNav1.7 (Homo sapiens, UniProt Q15858). Kind of assay: cell-based. As to conditions: for Wash out: PatchXpress Nav1.7, whether block washes out (Yes/No); for Nav1.4/Nav1.7 / Nav1.5/Nav1.7: ratio of PX tonic IC50 values. The format is cell-based.
Sequence of hNav1.7 (Q15858 whole entry): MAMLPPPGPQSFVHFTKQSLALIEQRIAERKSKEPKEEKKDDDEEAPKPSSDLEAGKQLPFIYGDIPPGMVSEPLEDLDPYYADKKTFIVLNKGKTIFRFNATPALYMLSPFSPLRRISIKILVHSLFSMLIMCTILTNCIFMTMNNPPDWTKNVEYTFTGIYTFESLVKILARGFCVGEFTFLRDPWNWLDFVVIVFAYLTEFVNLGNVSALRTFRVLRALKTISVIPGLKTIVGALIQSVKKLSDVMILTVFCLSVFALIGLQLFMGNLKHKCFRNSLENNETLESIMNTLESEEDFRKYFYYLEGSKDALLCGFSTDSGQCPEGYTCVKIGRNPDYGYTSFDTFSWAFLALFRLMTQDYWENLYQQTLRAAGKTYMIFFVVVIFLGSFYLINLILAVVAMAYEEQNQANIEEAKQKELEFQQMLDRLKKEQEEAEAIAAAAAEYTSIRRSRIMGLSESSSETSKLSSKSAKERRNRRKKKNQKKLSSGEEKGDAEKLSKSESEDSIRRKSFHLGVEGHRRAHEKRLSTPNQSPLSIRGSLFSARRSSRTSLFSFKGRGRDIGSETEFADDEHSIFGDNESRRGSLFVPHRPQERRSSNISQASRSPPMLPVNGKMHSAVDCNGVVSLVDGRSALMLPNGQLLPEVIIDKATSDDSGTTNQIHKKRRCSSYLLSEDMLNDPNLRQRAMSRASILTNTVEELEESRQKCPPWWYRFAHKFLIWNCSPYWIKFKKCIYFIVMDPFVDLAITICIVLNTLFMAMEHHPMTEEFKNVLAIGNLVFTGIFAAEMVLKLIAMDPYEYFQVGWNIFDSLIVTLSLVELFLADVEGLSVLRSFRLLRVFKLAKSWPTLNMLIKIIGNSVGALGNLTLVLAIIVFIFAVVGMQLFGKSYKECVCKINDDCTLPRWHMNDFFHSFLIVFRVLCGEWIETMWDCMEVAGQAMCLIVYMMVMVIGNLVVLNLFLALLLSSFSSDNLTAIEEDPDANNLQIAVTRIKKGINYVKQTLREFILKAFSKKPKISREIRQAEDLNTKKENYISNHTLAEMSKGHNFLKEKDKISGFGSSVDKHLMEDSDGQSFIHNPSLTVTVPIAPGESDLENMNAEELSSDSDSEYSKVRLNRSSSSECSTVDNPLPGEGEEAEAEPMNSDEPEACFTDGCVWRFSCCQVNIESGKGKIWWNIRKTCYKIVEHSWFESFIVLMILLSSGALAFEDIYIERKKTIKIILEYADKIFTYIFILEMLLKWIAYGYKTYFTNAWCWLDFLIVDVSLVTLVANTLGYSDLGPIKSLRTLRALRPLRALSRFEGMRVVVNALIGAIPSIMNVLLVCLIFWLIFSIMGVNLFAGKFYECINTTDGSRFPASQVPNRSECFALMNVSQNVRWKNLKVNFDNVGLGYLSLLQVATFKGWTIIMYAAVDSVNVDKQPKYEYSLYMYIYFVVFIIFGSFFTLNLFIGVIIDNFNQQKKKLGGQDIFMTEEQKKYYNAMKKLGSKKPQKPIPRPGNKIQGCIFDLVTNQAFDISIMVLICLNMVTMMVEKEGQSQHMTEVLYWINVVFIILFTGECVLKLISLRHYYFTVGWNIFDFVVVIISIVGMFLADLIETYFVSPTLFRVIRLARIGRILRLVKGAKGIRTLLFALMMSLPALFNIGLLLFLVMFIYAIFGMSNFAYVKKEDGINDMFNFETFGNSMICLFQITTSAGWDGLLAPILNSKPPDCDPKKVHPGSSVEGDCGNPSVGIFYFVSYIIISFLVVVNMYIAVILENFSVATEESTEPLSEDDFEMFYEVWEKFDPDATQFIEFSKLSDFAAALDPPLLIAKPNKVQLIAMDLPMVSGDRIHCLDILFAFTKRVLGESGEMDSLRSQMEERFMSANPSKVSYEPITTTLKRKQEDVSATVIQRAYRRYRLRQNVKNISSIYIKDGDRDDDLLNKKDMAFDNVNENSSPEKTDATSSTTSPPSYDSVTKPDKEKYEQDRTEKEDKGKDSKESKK

As usually defined, the IC50 is the concentration that inhibits the measured activity by half. For the molecule `CCCC[C@@H]1NC(=O)[C@H](Cc2c[nH]c3ccccc23)NC(=O)[C@H](CCCCN)NC(=O)[C@H](CCC(N)=O)NC(=O)[C@@H](NC(=O)[C@H](Cc2ccc(O)cc2)NC(=O)[C@@H](N)Cc2cn(CCOCCOCCOCCOCCOCCOCCOCCOCCOCCOCCOCCOCCOCCOCCOCCOCCOCCOCCOCCOCCOCCOCCOCCNC(=O)c3cc(CNC(=O)CSCc4ccccc4)cc(C(=O)NCCOCCOCCOCCOCCOCCOCCOCCOCCOCCOCCOCCOCCOCCOCCOCCOCCOCCOCCOCCOCCOCCOCCOCCn4cc(C[C@H](N)C(=O)N[C@@H](Cc5ccc(O)cc5)C(=O)N[C@H]5CSSC[C@@H]6NC(=O)[C@@H]7CSSC[C@@H](C(=O)N[C@@H](CCCNC(=N)N)C(=O)N[C@@H](CCCCN)C(=O)N[C@H](C(=O)N[C@H](C(N)=O)[C@@H](C)CC)[C@@H](C)CC)NC(=O)[C@H](Cc8c[nH]c9ccccc89)NC(=O)[C@H](CC(C)C)NC(=O)[C@H](CCCCN)NC(=O)[C@H](CSSC[C@H](NC(=O)[C@H]([C@@H](C)O)NC(=O)[C@H](Cc8c[nH]c9ccccc89)NC(=O)[C@H](CCCC)NC(=O)[C@H](Cc8c[nH]c9ccccc89)NC(=O)[C@H](CCCCN)NC(=O)[C@H](CCC(N)=O)NC5=O)C(=O)N[C@@H](CC(=O)O)C(=O)N[C@@H](CO)C(=O)N[C@@H](CCCCN)C(=O)N[C@@H](CCCNC(=N)N)C(=O)N[C@@H](C)C(=O)N7)NC(=O)[C@H](CCCNC(=N)N)NC(=O)[C@H](CC(C)C)NC(=O)CNC(=O)[C@H](CCC(=O)O)NC6=O)nn4)c3)nn2)CSSC[C@@H]2NC(=O)[C@@H]3CSSC[C@@H](C(=O)N[C@@H](CCCNC(=N)N)C(=O)N[C@@H](CCCCN)C(=O)N[C@H](C(=O)N[C@H](C(N)=O)[C@@H](C)CC)[C@@H](C)CC)NC(=O)[C@H](Cc4c[nH]c5ccccc45)NC(=O)[C@H](CC(C)C)NC(=O)[C@H](CCCCN)NC(=O)[C@H](CSSC[C@H](NC(=O)[C@H]([C@@H](C)O)NC(=O)[C@H](Cc4c[nH]c5ccccc45)NC1=O)C(=O)N[C@@H](CC(=O)O)C(=O)N[C@@H](CO)C(=O)N[C@@H](CCCCN)C(=O)N[C@@H](CCCNC(=N)N)C(=O)N[C@@H](C)C(=O)N3)NC(=O)[C@H](CCCNC(=N)N)NC(=O)[C@H](CC(C)C)NC(=O)CNC(=O)[C@H](CCC(=O)O)NC2=O` [Homodimeric Peptide No. 2], the Wash out entry is reported as “No”. In addition, the IC50 (read-out: Nav1.7 PX IC50) came to 0.241 nM.
For `CCCC[C@@H]1NC(=O)[C@H](Cc2c[nH]c3ccccc23)NC(=O)[C@H](CCCCN)NC(=O)[C@H](CCC(N)=O)NC(=O)[C@@H](NC(=O)[C@H](Cc2ccc(O)cc2)NC(=O)[C@@H](N)Cc2cn(CCOCCOCCOCCOCCOCCOCCOCCOCCOCCOCCOCCOCCOCCOCCOCCOCCOCCOCCOCCOCCOCCOCCOCCNC(=O)c3cc(CN)cc(C(=O)NCCOCCOCCOCCOCCOCCOCCOCCOCCOCCOCCOCCOCCOCCOCCOCCOCCOCCOCCOCCOCCOCCOCCOCCn4cc(C[C@H](N)C(=O)N[C@@H](Cc5ccc(O)cc5)C(=O)N[C@H]5CSSC[C@@H]6NC(=O)[C@@H]7CSSC[C@@H](C(=O)N[C@@H](CCCNC(=N)N)C(=O)N[C@@H](CCCCN)C(=O)N[C@@H](CCC(=O)O)C(=O)N[C@H](C(N)=O)[C@@H](C)CC)NC(=O)[C@H](Cc8c[nH]c9ccccc89)NC(=O)[C@H](CC(C)C)NC(=O)[C@H](CCCCN)NC(=O)[C@H](CSSC[C@H](NC(=O)[C@H]([C@@H](C)O)NC(=O)[C@H](Cc8c[nH]c9ccccc89)NC(=O)[C@H](CCCC)NC(=O)[C@H](Cc8c[nH]c9ccccc89)NC(=O)[C@H](CCCCN)NC(=O)[C@H](CCC(N)=O)NC5=O)C(=O)N[C@@H](CC(=O)O)C(=O)N[C@@H](CO)C(=O)N[C@@H](CCCCN)C(=O)N[C@@H](CCCNC(=N)N)C(=O)N[C@@H](C)C(=O)N7)NC(=O)[C@H](CCCNC(=N)N)NC(=O)[C@H](CC(C)C)NC(=O)CNC(=O)[C@H](CCC(=O)O)NC6=O)nn4)c3)nn2)CSSC[C@@H]2NC(=O)[C@@H]3CSSC[C@@H](C(=O)N[C@@H](CCCNC(=N)N)C(=O)N[C@@H](CCCCN)C(=O)N[C@@H](CCC(=O)O)C(=O)N[C@H](C(N)=O)[C@@H](C)CC)NC(=O)[C@H](Cc4c[nH]c5ccccc45)NC(=O)[C@H](CC(C)C)NC(=O)[C@H](CCCCN)NC(=O)[C@H](CSSC[C@H](NC(=O)[C@H]([C@@H](C)O)NC(=O)[C@H](Cc4c[nH]c5ccccc45)NC1=O)C(=O)N[C@@H](CC(=O)O)C(=O)N[C@@H](CO)C(=O)N[C@@H](CCCCN)C(=O)N[C@@H](CCCNC(=N)N)C(=O)N[C@@H](C)C(=O)N3)NC(=O)[C@H](CCCNC(=N)N)NC(=O)[C@H](CC(C)C)NC(=O)CNC(=O)[C@H](CCC(=O)O)NC2=O` [Homodimeric Peptide No. 7], the Wash out entry is listed as “No”.
Take `CC[C@H](C)[C@H](NC(=O)[C@@H](NC(=O)[C@H](CCCCN)NC(=O)[C@H](CCC(=O)O)NC(=O)[C@@H]1CSSC[C@@H]2NC(=O)[C@H](C)NC(=O)[C@H](CCCNC(=N)N)NC(=O)[C@H](CCCCN)NC(=O)[C@H](CO)NC(=O)[C@H](CC(=O)O)NC(=O)[C@@H]3CSSC[C@H](NC(=O)[C@H](CCCNC(=N)N)NC(=O)[C@H](CC(C)C)NC(=O)CNC(=O)[C@H](CCC(=O)O)NC(=O)[C@H](CSSC[C@H](NC(=O)[C@@H](N)Cc4ccc(O)cc4)C(=O)N[C@@H](CCC(N)=O)C(=O)N[C@@H](CCCCN)C(=O)N[C@@H](Cc4c[nH]c5ccccc45)C(=O)N[C@@H](CCSC)C(=O)N[C@@H](Cc4c[nH]c5ccccc45)C(=O)N[C@@H]([C@@H](C)O)C(=O)N3)NC2=O)C(=O)N[C@@H](CCCCN)C(=O)N[C@@H](CC(C)C)C(=O)N[C@@H](Cc2c[nH]c3ccccc23)C(=O)N1)[C@@H](C)CC)C(N)=O` [compound 67]: under “PatchXpress, tonic, Table 11, read-out: PX hNav1.7 Tonic IC50”, the IC50 was more than 1000 nM.
In the case of `CC[C@H](C)[C@H](NC(=O)[C@H](Cc1ccc(O)cc1)NC(=O)[C@H](CCCCN)NC(=O)[C@H](CCCNC(=N)N)NC(=O)[C@@H]1CSSC[C@@H]2NC(=O)[C@H](C)NC(=O)[C@H](CCCNC(=N)N)NC(=O)[C@H](CCCCN)NC(=O)[C@H](CO)NC(=O)[C@H](CC(=O)O)NC(=O)[C@@H]3CSSC[C@H](NC(=O)[C@H](CCC(=O)O)NC(=O)[C@H](CC(C)C)NC(=O)CNC(=O)[C@H](CCC(=O)O)NC(=O)[C@H](CSSC[C@H](NC(=O)[C@@H](N)Cc4ccc(O)cc4)C(=O)N[C@@H](CCC(N)=O)C(=O)N[C@@H](CCCCN)C(=O)N[C@@H](Cc4ccccc4)C(=O)N[C@@H](CCSC)C(=O)N[C@@H](Cc4c[nH]c5ccccc45)C(=O)N[C@@H]([C@@H](C)O)C(=O)N3)NC2=O)C(=O)N[C@@H](CCCCN)C(=O)N[C@@H](CC(C)C)C(=O)N[C@@H](Cc2c[nH]c3ccccc23)C(=O)N1)C(N)=O` [compound 193], under “Table 11”, the Nav1.4/Nav1.7 is on record as 217 and the Nav1.5/Nav1.7 came out at 217.
Regarding `CC[C@H](C)[C@H](NC(=O)[C@H](Cc1ccc(O)cc1)NC(=O)[C@H](CCCCN)NC(=O)[C@H](CCCNC(=N)N)NC(=O)[C@@H]1CSSC[C@@H]2NC(=O)[C@H](C)NC(=O)[C@H](CCCNC(=N)N)NC(=O)[C@H](CCCCN)NC(=O)[C@H](CO)NC(=O)[C@H](CC(=O)O)NC(=O)[C@@H]3CSSC[C@H](NC(=O)[C@H](CCC(=O)O)NC(=O)[C@H](CC(C)C)NC(=O)CNC(=O)[C@H](CCC(=O)O)NC(=O)[C@H](CSSC[C@H](NC(=O)[C@@H](N)Cc4ccc(O)cc4)C(=O)N[C@@H](CCC(N)=O)C(=O)N[C@@H](CCCCN)C(=O)N[C@@H](Cc4c[nH]c5ccccc45)C(=O)N[C@@H](CCSC)C(=O)N[C@@H](Cc4c[nH]c5ccccc45)C(=O)N[C@@H]([C@@H](C)O)C(=O)N3)NC2=O)C(=O)N[C@@H](CCCCN)C(=O)N[C@@H](CC(C)C)C(=O)N[C@@H](Cc2cccc3ccccc23)C(=O)N1)C(N)=O` [compound 218], for the setting “Table 11”, the Nav1.4/Nav1.7 is given as 434 and the Nav1.5/Nav1.7 worked out at 833.
The corresponding values for `CSCC[C@@H]1NC(=O)[C@H](Cc2c[nH]c3ccccc23)NC(=O)[C@H](CCCCN)NC(=O)[C@H](CCC(N)=O)NC(=O)[C@@H](NC(=O)[C@@H](N)Cc2ccc(O)cc2)CSSC[C@@H]2NC(=O)[C@@H]3CSSC[C@@H](C(=O)N[C@@H](CCCNC(=N)N)C(=O)N[C@@H](CCCCN)C(=O)N[C@@H](Cc4ccc(O)cc4)C(=O)N[C@@H](Cc4ccc5ccccc5c4)C(N)=O)NC(=O)[C@H](Cc4c[nH]c5ccccc45)NC(=O)[C@H](CC(C)C)NC(=O)[C@H](CCCCN)NC(=O)[C@H](CSSC[C@H](NC(=O)[C@H]([C@@H](C)O)NC(=O)[C@H](Cc4c[nH]c5ccccc45)NC1=O)C(=O)N[C@@H](CC(=O)O)C(=O)N[C@@H](CO)C(=O)N[C@@H](CCCCN)C(=O)N[C@@H](CCCNC(=N)N)C(=O)N[C@@H](C)C(=O)N3)NC(=O)[C@H](CCC(=O)O)NC(=O)[C@H](CC(C)C)NC(=O)CNC(=O)[C@H](CCC(=O)O)NC2=O` [compound 233] are 265 and 433.
As to `CSCC[C@@H]1NC(=O)[C@H](Cc2c[nH]c3ccccc23)NC(=O)[C@H](CCCCN)NC(=O)[C@H](CCC(N)=O)NC(=O)[C@@H](NC(=O)[C@@H](N)Cc2ccc(O)cc2)CSSC[C@@H]2NC(=O)[C@@H]3CSSC[C@@H](C(=O)N[C@@H](CCCNC(=N)N)C(=O)N[C@@H](CCCCN)C(=O)N[C@@H](Cc4ccc(O)cc4)C(=O)N[C@@H](CC(C)C)C(N)=O)NC(=O)[C@H](Cc4c[nH]c5ccccc45)NC(=O)[C@H](CC(C)C)NC(=O)[C@H](CCCCN)NC(=O)[C@H](CSSC[C@H](NC(=O)[C@H]([C@@H](C)O)NC(=O)[C@H](Cc4c[nH]c5ccccc45)NC1=O)C(=O)N[C@@H](CC(=O)O)C(=O)N[C@@H](CO)C(=O)N[C@@H](CCCCN)C(=O)N[C@@H](CCCNC(=N)N)C(=O)N[C@@H](C)C(=O)N3)NC(=O)[C@H](CCC(=O)O)NC(=O)[C@H](CC(C)C)NC(=O)CNC(=O)[C@H](CCC(=O)O)NC2=O` [compound 238], where the note is “Table 11”, the Nav1.4/Nav1.7 is given as 241 and the Nav1.5/Nav1.7 is on record as 2817.
